Data as given in US11180510B2, “Xanthine derivatives and uses thereof as inhibitors of bromodomains of BET proteins” (Centre national de la recherche scientifique, priority 2017, dated 2021).
Where two headings read alike, the source gives them in different places.

Key:
Brd2(BD1) = target: T1, Brd2(BD1) (Homo sapiens, UniProt P25440); test: HTRF BET selectivity profile, Brd2(BD1); format: binding
T1 construct: GST tagged bromodomain proteins were purchased from BPS Bioscience; purchased BPS Bioscience
T1 sequence (P25440 74-180 limits assumed): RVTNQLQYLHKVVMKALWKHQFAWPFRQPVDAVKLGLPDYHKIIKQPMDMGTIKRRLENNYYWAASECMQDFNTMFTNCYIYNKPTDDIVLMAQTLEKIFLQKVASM

Brdt(BD1) = target: T2, Brdt(BD1) (Homo sapiens, UniProt Q58F21); test: HTRF BET selectivity profile, Brdt(BD1); format: binding
T2 construct: GST tagged bromodomain proteins were purchased from BPS Bioscience; purchased BPS Bioscience
Procedure, shortened: (§1)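 HTRF peptide-displacement assay with GST-tagged bromodomains and histone peptide, 0.5% final DMSO, incubated 3 h, 6 h or overnight at room temperature or 4 °C depending on bromodomain. 665/620 nm ratio read; inhibition scaled between DMSO and no-peptide controls, IC50 in triplicate.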

Brd4(BD2) = target: T3, Brd4(BD2) (Homo sapiens, UniProt O60885); test: HTRF BET selectivity profile, Brd4(BD2); format: binding
T3 construct: GST tagged bromodomain proteins were purchased from BPS Bioscience; purchased BPS Bioscience
Procedure, shortened: as §1

Brd3(BD2) = target: T4, Brd3(BD2) (Homo sapiens, UniProt Q15059); test: HTRF BET selectivity profile, Brd3(BD2); format: binding
T4 construct: GST tagged bromodomain proteins were purchased from BPS Bioscience; purchased BPS Bioscience
T4 sequence (Q15059 306-415 limits assumed): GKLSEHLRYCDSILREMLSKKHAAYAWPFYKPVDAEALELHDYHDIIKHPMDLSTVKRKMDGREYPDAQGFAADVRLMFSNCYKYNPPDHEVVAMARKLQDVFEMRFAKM
Procedure, shortened: as §1

Brd2(BD2) = target: T5, Brd2(BD2) (Homo sapiens, UniProt P25440); test: HTRF BET selectivity profile, Brd2(BD2); format: binding; conditions: read-out: Brd2(BD2) IC50
T5 construct: GST tagged bromodomain proteins were purchased from BPS Bioscience; purchased BPS Bioscience
T5 sequence (P25440 344-453 limits assumed): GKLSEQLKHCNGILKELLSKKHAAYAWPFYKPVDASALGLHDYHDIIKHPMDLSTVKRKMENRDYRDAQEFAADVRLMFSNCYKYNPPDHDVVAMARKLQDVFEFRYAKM

ATAD2 = target: T6, ATAD2 (Homo sapiens, UniProt Q6PL18); test: HTRF selectivity profile, ATAD2 (non-BET bromodomain control); format: binding
T6 construct: GST tagged bromodomain proteins were purchased from BPS Bioscience; purchased BPS Bioscience
T6 sequence (Q6PL18 980-1092 limits assumed): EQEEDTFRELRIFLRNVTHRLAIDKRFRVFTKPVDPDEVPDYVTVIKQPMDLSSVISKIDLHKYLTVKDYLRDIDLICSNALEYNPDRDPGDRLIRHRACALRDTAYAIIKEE
Protocol: HTRF assays were performed in white 384 Well Small Volume™ HiBase Polystyrene Microplates (Greiner) with a total working volume of 20 μL. Compounds were dispensed, with 100 nL per well (0.5% final DMSO), from a concentration stock of 10 mM in 100% DMSO and with serial DMSO dilutions, using an Echo® 550 robot from the Access Labcyte platform (Labcyte) and based on the transfer of liquid by acoustic wave. Then, 19.5 μL of buffer is added, using a Multidrop Combi (Thermo Fisher Scientific). […] HTRF signals were measured, after a final incubation (3 h or 6 h or overnight at room temperature or 4° C., according to the bromodomain), using a PHERAstar FS (BMG Labtech) with an excitation filter at 337 nm and fluorescence wavelength measurement at 620 and 665 nm, an integration delay of 60 μs and an integration time of 500 μs. Results were analyzed with a two-wavelengths signal ratio: [intensity (665 nm)/intensity (620 nm)]*104.
Percentage of inhibition was calculated using the following equation: % inhibition=[(compound signal)−(min signal)]/[(max signal)−(min signal)]*100, where ‘max signal’ is the signal ratio with the compound vehicle alone (DMSO) and ‘min signal’ the signal ratio without peptide. […]

Jurkat cells = test: Cell Titer-Glo cell viability assay, Jurkat; format: cell-based; conditions: Homo sapiens, 72 h, mean of three experiments, NA = IC50 > maximal concentration used
Protocol: (§2) The human leukemia cell line Jurkat (ATCC® TIB-152) and Molm14 was maintained in RPMI-1640 medium or MEMα, respectively and supplemented both with 10% FBS at 37° C. and 5% CO2.
(§3) In antiproliferative assays, compounds were assayed for their growth inhibiting activity towards the described cancer cell lines using the Cell Titer-Glo Luminescent Cell Viability Assay as described by the manufacturer (Promega Corporation). Briefly, 10.000 cells were plated onto 96 well-plates (white with clear bottom (3610, Corning Costar)) in 90 μL media per well immediately before assay. 10 μL of compounds were added at different concentrations (ranging from 50 μM to 6 nM) to each well and cell cultures were incubated 37° C. during 72 h. Vehicle (DMSO) was used as negative control, JQ1 (a pan-BET inhibitor) was used as positive control and all compounds were tested in constant percentage of DMSO (1%). After addition of 50 μL Cell Titer-GLO, shaking 2 minutes and incubating at room temperature 10 minutes, the Luminescence was measured using a Centro luminometer LB960 (Berthold). Dose-response curves were generated and effective dose 50 values (EC50) were calculated using non-linear regression analysis (Graph Pad Prism).

Molm14 cells = test: Cell Titer-Glo cell viability assay, Molm14; format: cell-based; conditions: Homo sapiens, MOLM-14, 72 h, mean of three experiments, NA = IC50 > maximal concentration used
Protocol: as §2, §3

BRD4(BD1) = BRD4(BD1) (Homo sapiens, UniProt O60885); test: HTRF assay, BRD4(BD1)/histone peptide interaction; format: binding; parameters: made in house; conditions: for IC50: HTRF
Brd3(BD1) = Brd3(BD1) (Homo sapiens, UniProt Q15059); test: HTRF BET selectivity profile, Brd3(BD1); format: binding; parameters: GST tagged bromodomain proteins were purchased from BPS Bioscience; purchased BPS Bioscience
Brd3(BD1), sequence (Q15059 34-140 limits assumed): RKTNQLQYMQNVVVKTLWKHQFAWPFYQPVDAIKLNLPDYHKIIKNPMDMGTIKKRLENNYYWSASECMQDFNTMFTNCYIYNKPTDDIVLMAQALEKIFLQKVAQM

- IC50 (Brd2(BD1); read-out: Brd2(BD1) IC50): 3.31 µM
- Ratio 2-1 vs 2-2 (Brd2(BD1); selectivity Brd2(BD1) vs Brd2(BD2), HTRF IC50): 5
- IC50 (Brdt(BD1)): 19.7 µM
- IC50 (Brd4(BD2)): 17.7 µM
- IC50 (Brd3(BD2)): 13.5 µM
- IC50 (Brd2(BD2)): 16 µM
- IC50 (ATAD2): 24.6 µM
- IC50 (Jurkat cells): 26.5 µM
- IC50 (Molm14 cells): 10.6 µM
- IC50 (BRD4(BD1); mean of three experiments, NA = IC50 > 50 μM, read-out: Brd4(8D1) IC50): 0.45 µM
- IC50 (BRD4(BD1); triplicates, NA = IC50 > maximal concentration of compound used): 0.45 µM
- Ratio 4-1 vs 4-2 (BRD4(BD1); selectivity Brd4(BD1) vs Brd4(BD2), HTRF IC50): 39
- IC50 (Brd3(BD1)): 0.897 µM
- Ratio 3-1 vs 3-2 (Brd3(BD1); selectivity Brd3(BD1) vs Brd3(BD2), HTRF IC50): 15
SMILES: CCn1cnc2c1c(=O)[nH]c(=O)n2Cc1ccc(CNS(=O)(=O)c2ccc(-c3ccccc3)cc2)cc1 [Compound 29b]
